# Reference: ChEMBL document CHEMBL3885861, “Open TG-GATES”
# Organism: Rattus norvegicus
# Experiment: Open TG-GATES - Regimen: Single
# Type: toxicity, organism-based, Sprague-Dawley
# Parameters: regimen Single, gender Male, age 6 weeks
# Settings: in vivo, po, 1000 mg/kg, route gavage, dose level Middle; for APTT / Bas / Eos / Fbg / Hb / Ht / Lym / MCH / MCHC / MCV / Mono / Neu / Plat / RBC / Ret / WBC: tissue Blood; for KIDNEY_L / KIDNEY_R / KIDNEY_TOTAL: tissue Kidney; for LIVER: tissue Liver; for ALP / ALT / AST / BUN / CRE / Ca / Cl / DBIL / GLC / IP / K / LDH / Na / PL / RALB / TBIL / TC / TG / TP / gamma-GTP: tissue Plasma
smiles,measurement,setting,value
CC(=O)Oc1ccccc1C(=O)O [ASPIRIN],TERMINAL_BW,3 h,217.1 g
same,APTT,3 h,19 s
same,Bas,3 h,0%
same,Eos,3 h,1%
same,Fbg,3 h,217.4 mg/dL
same,Hb,3 h,13.6 g/dL
same,Ht,3 h,37.9%
same,Lym,3 h,69.4%
same,MCH,3 h,21.9 pg
same,MCHC,3 h,35.9%
same,MCV,3 h,60.8 fL
same,Mono,3 h,2.8%
same,Neu,3 h,25.4%
same,Plat,3 h,121 x10_4/uL
same,RBC,3 h,624.8 x10_4/ul
same,Ret,3 h,8%
same,WBC,3 h,72.1 x10_2/uL
same,KIDNEY_L,3 h,0.9 g
same,KIDNEY_R,3 h,1 g
same,KIDNEY_TOTAL,3 h,1.9 g
same,LIVER,3 h,8.8 g
same,ALP,3 h,835 IU/L
same,ALT,3 h,44.4 IU/L
same,AST,3 h,79 IU/L
same,BUN,3 h,15.8 mg/dL
same,CRE,3 h,0.4 mg/dL
same,Ca,3 h,8.7 mg/dL
same,Cl,3 h,104 meq/L
same,DBIL,3 h,0.06 mg/dL
same,GLC,3 h,203.8 mg/dL
same,IP,3 h,8.3 mg/dL
same,K,3 h,3.4 meq/L
same,LDH,3 h,205.8 IU/L
same,Na,3 h,141 meq/L
same,PL,3 h,88.8 mg/dL
same,RALB,3 h,3.4 g/dL
same,TBIL,3 h,0.1 mg/dL
same,TC,3 h,54.6 mg/dL
same,TG,3 h,26.2 mg/dL
same,TP,3 h,5.5 g/dL
same,gamma-GTP,3 h,1 IU/L
same,TERMINAL_BW,6 h,218.6 g
same,APTT,6 h,19.9 s
same,Bas,6 h,0%
same,Eos,6 h,0.6%
same,Fbg,6 h,233.4 mg/dL
same,Hb,6 h,13.7 g/dL
same,Ht,6 h,37.9%
same,Lym,6 h,66%
same,MCH,6 h,21.5 pg
same,MCHC,6 h,36.2%
same,MCV,6 h,59.5 fL
same,Mono,6 h,3.4%
same,Neu,6 h,29%
same,Plat,6 h,132.5 x10_4/uL
same,RBC,6 h,637.2 x10_4/ul
same,Ret,6 h,7.9%
same,WBC,6 h,97.1 x10_2/uL
same,KIDNEY_L,6 h,1 g
same,KIDNEY_R,6 h,0.9 g
same,KIDNEY_TOTAL,6 h,1.9 g
same,LIVER,6 h,8.5 g
same,ALP,6 h,820.8 IU/L
same,ALT,6 h,35.4 IU/L
same,AST,6 h,78.2 IU/L
same,BUN,6 h,14.8 mg/dL
same,CRE,6 h,0.4 mg/dL
same,Ca,6 h,8.3 mg/dL
same,Cl,6 h,104.2 meq/L
same,DBIL,6 h,0.056 mg/dL
same,GLC,6 h,209.4 mg/dL
same,IP,6 h,8.1 mg/dL
same,K,6 h,3.3 meq/L
same,LDH,6 h,236.6 IU/L
same,Na,6 h,140.2 meq/L
same,PL,6 h,108 mg/dL
same,RALB,6 h,3.6 g/dL
same,TBIL,6 h,0.098 mg/dL
same,TC,6 h,68.6 mg/dL
same,TG,6 h,16.8 mg/dL
same,TP,6 h,5.7 g/dL
same,gamma-GTP,6 h,1 IU/L
same,TERMINAL_BW,9 h,217.1 g
same,APTT,9 h,21.6 s
same,Bas,9 h,0%
same,Eos,9 h,1%
same,Fbg,9 h,232.4 mg/dL
same,Hb,9 h,13.7 g/dL
same,Ht,9 h,38.1%
same,Lym,9 h,69.4%
same,MCH,9 h,21.4 pg
same,MCHC,9 h,35.8%
same,MCV,9 h,59.7 fL
same,Mono,9 h,2.4%
same,Neu,9 h,27%
same,Plat,9 h,128.3 x10_4/uL
same,RBC,9 h,638.6 x10_4/ul
same,Ret,9 h,7.8%
same,WBC,9 h,93.3 x10_2/uL
same,KIDNEY_L,9 h,1 g
same,KIDNEY_R,9 h,0.9 g
same,KIDNEY_TOTAL,9 h,1.9 g
same,LIVER,9 h,7.5 g
same,ALP,9 h,903.8 IU/L
same,ALT,9 h,33.2 IU/L
same,AST,9 h,79.8 IU/L
same,BUN,9 h,13.2 mg/dL
same,CRE,9 h,0.4 mg/dL
same,Ca,9 h,8.5 mg/dL
same,Cl,9 h,106.4 meq/L
same,DBIL,9 h,0.05 mg/dL
same,GLC,9 h,202.4 mg/dL
same,IP,9 h,7.7 mg/dL
same,K,9 h,3.2 meq/L
same,LDH,9 h,227.2 IU/L
same,Na,9 h,140.6 meq/L
same,PL,9 h,102.4 mg/dL
same,RALB,9 h,3.5 g/dL
same,TBIL,9 h,0.098 mg/dL
same,TC,9 h,62.8 mg/dL
same,TG,9 h,9.2 mg/dL
same,TP,9 h,5.5 g/dL
same,gamma-GTP,9 h,1.2 IU/L
same,TERMINAL_BW,24 h,217 g
same,APTT,24 h,29.4 s
same,Bas,24 h,0.4%
same,Eos,24 h,1%
same,Fbg,24 h,225 mg/dL
same,Hb,24 h,14.4 g/dL
same,Ht,24 h,39.3%
same,Lym,24 h,72%
same,MCH,24 h,22.1 pg
same,MCHC,24 h,36.6%
same,MCV,24 h,60.4 fL
same,Mono,24 h,2.2%
same,Neu,24 h,24.2%
same,Plat,24 h,131.6 x10_4/uL
same,RBC,24 h,650.8 x10_4/ul
same,Ret,24 h,7.1%
same,WBC,24 h,89.6 x10_2/uL
same,KIDNEY_L,24 h,0.9 g
same,KIDNEY_R,24 h,0.9 g
same,KIDNEY_TOTAL,24 h,1.9 g
same,LIVER,24 h,8.1 g
same,ALP,24 h,933.8 IU/L
same,ALT,24 h,38 IU/L
same,AST,24 h,110 IU/L
same,BUN,24 h,14.8 mg/dL
same,CRE,24 h,0.4 mg/dL
same,Ca,24 h,8.7 mg/dL
same,Cl,24 h,105.6 meq/L
same,DBIL,24 h,0.052 mg/dL
same,GLC,24 h,214 mg/dL
same,IP,24 h,7.3 mg/dL
same,K,24 h,3.5 meq/L
same,LDH,24 h,227.6 IU/L
same,Na,24 h,140.8 meq/L
same,PL,24 h,75.4 mg/dL
same,RALB,24 h,3.5 g/dL
same,TBIL,24 h,0.1 mg/dL
same,TC,24 h,40.2 mg/dL
same,TG,24 h,23.4 mg/dL
same,TP,24 h,5.7 g/dL
same,gamma-GTP,24 h,1.6 IU/L
